From the supplement of paper PMC10307832

What was measured:
Experiment in all cases: relative viability (nuclei count vs DMSO), 5 days (fraction); higher = more cells survive
[1] = compound: C[C@]1(O)C[C@@H](c2nc(-c3ccc4ccc(-c5ccccc5)nc4c3)c3c(N)nccn32)C1 [Linsitinib] + CC(=O)c1c(C)c2cnc(Nc3ccc(N4CCNCC4)cn3)nc2n(C2CCCC2)c1=O [Palbociclib] (partner 0.5 µM)
Procedure, shortened: (§1)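 A single step with final 0.05% Triton X-100, 1% formaldehyde and 1 ug/ml Hoechst fixed the cells and stained nuclei 5 days after treatment. Lung cancer cell lines in 1536-well plates had been treated by pin tool the day after seeding with one drug alone or a fixed anchor-drug dose plus five library-drug doses (not always all listed) in √10 steps, and nuclei were counted on 4× images. Relative viability is the ratio of nuclei in treated wells to nuclei in vehicle wells, taken as the median of duplicate plates.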

[2] = compound: Cc1ccc(C(=O)N(CCCN)[C@@H](c2nc3cc(Cl)ccc3c(=O)n2Cc2ccccc2)C(C)C)cc1 [Ispinesib] + CC(=O)Nc1cccc(-n2c(=O)n(C3CC3)c(=O)c3c(Nc4ccc(I)cc4F)n(C)c(=O)c(C)c32)c1 [Trametinib] (partner 0.02 µM)
Procedure, shortened: as §1

[3] = compound: Cc1ccc(C(=O)N(CCCN)[C@@H](c2nc3cc(Cl)ccc3c(=O)n2Cc2ccccc2)C(C)C)cc1 [Ispinesib] + Cc1nc(NC(=O)N2CCC[C@H]2C(N)=O)sc1-c1ccnc(C(C)(C)C(F)(F)F)c1 [Alpelisib] (partner 2 µM)
Procedure, shortened: as §1

[4] = compound: C[C@]1(O)C[C@@H](c2nc(-c3ccc4ccc(-c5ccccc5)nc4c3)c3c(N)nccn32)C1 [Linsitinib] + CC1(C)CCC(c2ccc(Cl)cc2)=C(CN2CCN(c3ccc(C(=O)NS(=O)(=O)c4ccc(N[C@H](CCN5CCOCC5)CSc5ccccc5)c(S(=O)(=O)C(F)(F)F)c4)cc3)CC2)C1 [Navitoclax] (partner 0.5 µM)
Procedure, shortened: as §1

Cell Line: UMC-11
- relative viability ([1]; first compound 0.01 µM): 0.303
- relative viability ([1]; first compound 0.03162 µM): 0.301
- relative viability ([1]; first compound 0.1 µM): 0.33
- relative viability ([1]; first compound 0.3162 µM): 0.322
- relative viability ([1]; first compound 1 µM): 0.332
- relative viability ([2]; first compound 0.001 µM): 0.685
- relative viability ([2]; first compound 0.003162 µM): 0.701
- relative viability ([2]; first compound 0.01 µM): 0.495
- relative viability ([2]; first compound 0.03162 µM): 0.238
- relative viability ([2]; first compound 0.1 µM): 0.309
- relative viability ([3]; first compound 0.001 µM): 0.944
- relative viability ([3]; first compound 0.003162 µM): 1.09
- relative viability ([3]; first compound 0.01 µM): 0.99
- relative viability ([3]; first compound 0.03162 µM): 0.351
- relative viability ([3]; first compound 0.1 µM): 0.282
- relative viability ([4]; first compound 0.01 µM): 0.317
- relative viability ([4]; first compound 0.03162 µM): 0.301
- relative viability ([4]; first compound 0.1 µM): 0.315
- relative viability ([4]; first compound 1 µM): 0.302
